Target: KRAS G12C (Homo sapiens (Human), UniProt P01116, C118A/G12C)
Assay: 2 h coupled exchange assay
Type: biochemical
Conditions: Avg 2 h Coupled exchange IC50, 2 h compound pre-incubation
Procedure: The term “2 h coupled exchange assay” or “20 h coupled exchange assay” as used herein refers to the assay described in the Section entitled “BIOLOGICAL EVALUATION.”

Sequence of KRAS G12C (P01116 other isoform, or with tags, fused parts or gaps G12C/C118A): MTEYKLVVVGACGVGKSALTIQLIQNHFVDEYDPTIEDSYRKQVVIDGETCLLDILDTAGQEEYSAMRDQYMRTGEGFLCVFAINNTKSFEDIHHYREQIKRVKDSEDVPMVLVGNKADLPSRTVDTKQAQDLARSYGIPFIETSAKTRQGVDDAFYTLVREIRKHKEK

Structure (SMILES) | IC50
C=CC(=O)N1CC2(CCN(c3nc4c(c(-c5cc(NS(C)(=O)=O)cc6ccccc56)c3C#N)CC(C)(C)C4)C2)C1 [Example 25-1, N-(4-(3-cyano-6,6-dimethyl-2-(2-(2-propenoyl)-2,6-diazaspiro[3.4]octan-6-yl)-6,7-dihydro-5H-cyclopenta[b]pyridin-4-yl)-2-naphthalenyl)methanesulfonamide] | 450 nM
C=CC(=O)N1CC2(CCN(c3nc4c(c(-c5c(C)ccc6cnn(C)c56)c3C(F)F)COC(C)(C)C4)C2)C1 [Example 29-1, 1-(6-(3-(difluoromethyl)-4-(1,6-dimethyl-1H-indazol-7-yl)-7,7-dimethyl-7,8-dihydro-5H-pyrano[4,3-b]pyridin-2-yl)-2,6-diazaspiro[3.4]octan-2-yl)-2-propen-1-one] | 648 nM
C=CC(=O)N1CC2(CCN(c3nc4c(c(-c5ccc(F)c6sc(N)c(C#N)c56)c3C)COC(C)(C)C4)C2)C1 [Example 14-106, 2-amino-7-fluoro-4-(3,7,7-trimethyl-2-(2-(2-propenoyl)-2,6-diazaspiro[3.4]octan-6-yl)-7,8-dihydro-5H-pyrano[4,3-b]pyridin-4-yl)-1-benzothiophene-3-carbonitrile] | 46 nM
C=CC(=O)N1CC2(CCN(c3nc4cc(-n5ccnc5C)ccc4c(-c4ccccc4Cl)c3C)[C@H]2C)C1 (single isomer, unassigned) [Example 15-6] | 3580 nM
C=CC(=O)N1CC2(CCN(c3nc4cc(-c5ccnn5C)ccc4c(-c4c(O)cccc4Cl)c3C)C2)C1 [Example 16-5, 1-(6-(4-(2-chloro-6-hydroxyphenyl)-3-methyl-7-(1-methyl-1H-pyrazol-5-yl)-2-quinolinyl)-2,6-diazaspiro[3.4]octan-2-yl)-2-propen-1-one] | 390 nM
C=CC(=O)N1CC2(CCN(c3nc4c(c(-c5ccc(F)c(O)c5)c3C#N)C[C@H]3C[C@@H]4C3(C)C)C2)C1 [Example 14-49, (1R,9R)-6-(4-fluoro-3-hydroxyphenyl)-10,10-dimethyl-4-(2-(2-propenoyl)-2,6-diazaspiro[3.4]octan-6-yl)-3-azatricyclo[7.1.1.0^2,7]undeca-2,4,6-triene-5-carbonitrile] | 776 nM
C=CC(=O)N1CC2(CCN(c3nc4c(c(-c5c(C)ccc6cnn(C)c56)c3F)COC(C)(C)C4)C2)C1 (single isomer, unassigned) [Example 14-101, (M)-1-(6-(4-(1,6-dimethyl-1H-indazol-7-yl)-3-fluoro-7,7-dimethyl-7,8-dihydro-5H-pyrano[4,3-b]pyridin-2-yl)-2,6-diazaspiro[3.4]octan-2-yl)-2-propen-1-one] | 301 nM

Same assay, conditions: Avg 2 h Coupled exchange IC50, 2 h compound pre-incubation, SOS-mediated nucleotide exchange

Structure (SMILES) | IC50
C=CC(=O)N1CC2(CCN(c3nc4c(c(-c5cc(S(N)(=O)=O)ccc5C)c3C#N)CCC(C)(C)C4)C2)C1 [Example 2-106, 3-(3-cyano-7,7-dimethyl-2-(2-(2-propenoyl)-2,6-diazaspiro[3.4]octan-6-yl)-5,6,7,8-tetrahydro-4-quinolinyl)-4-methylbenzenesulfonamide] | 288 nM
C=CC(=O)N1CC2(CCN(c3nc4c(c(-c5c(C)c(Cl)cc6[nH]ncc56)c3Cl)COC(C)(C)C4)C2)C1 [Example 2-92, 1-(6-(3-chloro-4-(6-chloro-5-methyl-1H-indazol-4-yl)-7,7-dimethyl-7,8-dihydro-5H-pyrano[4,3-b]pyridin-2-yl)-2,6-diazaspiro[3.4]octan-2-yl)-2-propen-1-one] | 21 nM
CN(C)C/C=C/C(=O)N1CC2(CCN(c3nc4c(c(-c5cc(O)cc6ccccc56)c3C#N)CC[C@H]3C[C@@H]43)C2)C1 (racemic) [Example 13-86, (M)-(6aR,7aS)-2-(2-((2E)-4-(dimethylamino)-2-butenoyl)-2,6-diazaspiro[3.4]octan-6-yl)-4-(3-hydroxy-1-naphthalenyl)-6,6a,7,7a-tetrahydro-5H-cyclopropa[h]quinoline-3-carbonitrile and (M)-(6aS,7aR)-2-(2-((E)-4-(dimethylamino)but-2-enoyl)-2,6-diazaspiro[3.4]octan-6-yl)-4-(3-hydroxynaphthalen-1-yl)-6,6a,7,7a-tetrahydro-5H-cyclopropan[h]quinoline-3-carbonitrile] | 20400 nM
C=CC(=O)N1CC2(CCN(c3nc4cc(F)ccc4c(-c4c(C)ccc5[nH]ncc45)c3C)[C@@H]2C)C1 (single isomer, unassigned) [Example 2-59] | 14900 nM
C=CC(=O)N1CC2(CCN(c3cc4c(c(-c5c(C)ccc6cnn(C)c56)c3Cl)OCCC4)C2)C1 [Example 2-102, 1-(6-(7-chloro-8-(1,6-dimethyl-1H-indazol-7-yl)-3,4-dihydro-2H-chromen-6-yl)-2,6-diazaspiro[3.4]octan-2-yl)-2-propen-1-one] | 70 nM
Cc1ccc2[nH]ncc2c1-c1c(C#N)c(N2CCC3(CN(C(=O)/C=C/C(F)(F)F)C3)C2)nc2c1CCC(C)(C)C2 [Example 13-7, 7,7-dimethyl-4-(5-methyl-1H-indazol-4-yl)-2-(2-((2E)-4,4,4-trifluoro-2-butenoyl)-2,6-diazaspiro[3.4]octan-6-yl)-5,6,7,8-tetrahydro-3-quinolinecarbonitrile] | 229 nM
C=CC(=O)N1CC2(CCN(c3nc4c(c(-c5ccc(O)c6ccccc56)c3C#N)COC(C)(C)C4)C2)C1 [Example 12-31, 4-(4-hydroxy-1-naphthalenyl)-7,7-dimethyl-2-(2-(2-propenoyl)-2,6-diazaspiro[3.4]octan-6-yl)-7,8-dihydro-5H-pyrano[4,3-b]pyridine-3-carbonitrile] | 189 nM
C=CC(=O)N1CC2(CCN(c3nc4c(c(-c5c(C)ccc6cnn(C)c56)c3C#N)CNC(C)(C)C4)C2)C1 [Example 13-138, 4-(1,6-dimethyl-1H-indazol-7-yl)-7,7-dimethyl-2-(2-(2-propenoyl)-2,6-diazaspiro[3.4]octan-6-yl)-5,6,7,8-tetrahydro-1,6-naphthyridine-3-carbonitrile] | 641 nM
C=CC(=O)N1CC2(CCN(c3nc4c(c(-c5cc(O)cc6nccnc56)c3C#N)C[C@H]3C[C@@H]4C3(C)C)C2)C1 (single isomer, unassigned) [Example 12-39] | 3900 nM
C=CC(=O)N1CC2(CCN(c3nc4c(c(-c5ccc(Cl)c6cc[nH]c56)c3C#N)COC(C)(C)C4)C2)C1 [Example 12-6, 4-(4-chloro-1H-indol-7-yl)-7,7-dimethyl-2-(2-(2-propenoyl)-2,6-diazaspiro[3.4]octan-6-yl)-7,8-dihydro-5H-pyrano[4,3-b]pyridine-3-carbonitrile] | 213 nM
C=CC(=O)N1CC2(CCN(c3nc4c(c(-c5cc(O)cc6cccnc56)c3C#N)C[C@H]3C[C@@H]4C3(C)C)C2)C1 (single isomer, unassigned) [Example 2-44] | 131000 nM
C=CC(=O)N1CC2(CCN(c3nc4c(c(-c5cc(O)cc6ccncc56)c3C#N)C[C@H]3C[C@@H]4C3(C)C)C2)C1 [Example 2-41, (1R,9R)-6-(6-hydroxy-8-isoquinolinyl)-10,10-dimethyl-4-(2-(2-propenoyl)-2,6-diazaspiro[3.4]octan-6-yl)-3-azatricyclo[7.1.1.0^2,7]undeca-2,4,6-triene-5-carbonitrile] | 113 nM
C=CC(=O)N1CC2(CCN(c3nc4c(c(-c5c(C)ccc6cnn(C)c56)c3C#N)[C@H]3C[C@@H](C4)C3)C2)C1 (single isomer, unassigned) [Example 13-132] | 24400 nM
C=CC(=O)N1CC2(CCN(c3nc4c(c(-c5cc(O)ccc5C)c3C#N)C[C@H]3C[C@@H]4C3(C)C)C2)C1 (single isomer, unassigned) [Example 2-68] | 16000 nM
C=CC(=O)N1CC2(CCN(c3nc4c(c(-c5c(C)c(Cl)cc6cnn(C)c56)c3C)CCN(C(C)C)C4)C2)C1 (single isomer, unassigned) [Example 12-23, (P)-1-(6-(4-(5-chloro-1,6-dimethyl-1H-indazol-7-yl)-3-methyl-7-(2-propanyl)-5,6,7,8-tetrahydro-1,7-naphthyridin-2-yl)-2,6-diazaspiro[3.4]octan-2-yl)-2-propen-1-one] | 18700 nM
Cc1ccc2[nH]ncc2c1-c1c(C#N)c(N2CCC3(CN(C(=O)/C=C/CF)C3)C2)nc2c1CCC(C)(C)C2 [Example 13-6, 2-(2-((2E)-4-fluoro-2-butenoyl)-2,6-diazaspiro[3.4]octan-6-yl)-7,7-dimethyl-4-(5-methyl-1H-indazol-4-yl)-5,6,7,8-tetrahydro-3-quinolinecarbonitrile] | 169 nM
C=CC(=O)N1CC2(CCN(c3nc4c(c(-c5c(C)ccc6cnn(C)c56)c3C#N)CC(C)(C)C4)C2)C1 (single isomer, unassigned) [Example 13-17, (M)-4-(1,6-dimethyl-1H-indazol-7-yl)-6,6-dimethyl-2-(2-(2-propenoyl)-2,6-diazaspiro[3.4]octan-6-yl)-6,7-dihydro-5H-cyclopenta[b]pyridine-3-carbonitrile] | 19900 nM
C=CC(=O)N1CC2(CCN(c3nc4c(c(-c5c(C)ccc6cnn(C)c56)c3C#N)[C@@H]3CC[C@H]4C3)C2)C1 (single isomer, unassigned) [Example 14-16] | 250000 nM
C=CC(=O)N1CC2(CCN(c3nc4ccccc4c(-c4c(CC)ccc5[nH]ncc45)c3C#N)C2)C1 [Example 4, 4-(5-ethyl-1H-indazol-4-yl)-2-(2-(2-propenoyl)-2,6-diazaspiro[3.4]octan-6-yl)-3-quinolinecarbonitrile] | 1050 nM
C=CC(=O)N1CC2(CCN(c3nc4c(c(-c5ccnn5C)c3C#N)CC[C@H](c3ccnn3C)C4)C2)C1 (single isomer, unassigned) [Example 13-28] | 266 nM
C=CC(=O)N1CC2(CCN(c3nc4c(c(-c5ccc(Cl)c6ccn(C)c56)c3C#N)COC(C)(C)C4)C2)C1 [Example 12-5, 4-(4-chloro-1-methyl-1H-indol-7-yl)-7,7-dimethyl-2-(2-(2-propenoyl)-2,6-diazaspiro[3.4]octan-6-yl)-7,8-dihydro-5H-pyrano[4,3-b]pyridine-3-carbonitrile] | 463 nM
C=CC(=O)N1CC2(CCN(c3nc4c(c(-c5c(C)ccc6[nH]ncc56)c3C#N)C[C@H]3C[C@@H]4C3(C)C)C2)C1 (single isomer, unassigned) [Example 13-114] | 1380 nM
